Reference: patent US20020102688A1, “Methods and products for the synthesis of oligosaccharide structures on glycoproteins, glycolipids, or as free molecules, and for the isolation of cloned genetic sequences that determine these structures” (The Regents of the University of Michigan, priority 1990, published 2002)

Target: T1, agglutinin from Erythrina cristagalli (ECA) (Erythrina crista-galli, UniProt P83410)
T1 construct: purchased E-Y Labs (San Mateo, Calif.)
T1 sequence (P83410 1-239): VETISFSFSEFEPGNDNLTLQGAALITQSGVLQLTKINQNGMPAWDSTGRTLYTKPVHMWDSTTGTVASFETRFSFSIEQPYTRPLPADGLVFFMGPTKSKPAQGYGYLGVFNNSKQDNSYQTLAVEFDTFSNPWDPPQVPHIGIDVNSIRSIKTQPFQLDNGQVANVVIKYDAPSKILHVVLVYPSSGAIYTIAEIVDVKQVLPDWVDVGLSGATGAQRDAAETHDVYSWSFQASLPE
Experiment: Hapten inhibition of FITC-ECA binding to L cells (FACS)
Settings: FITC-labeled ECA preincubated with hapten
Procedure: These would represent potential acceptor molecules for a complementing human (α-1,2)fucosyltransferase activity and would allow the resulting surface-expressed Fucα(1,2)Gal linkages to be detected with anti-H antibody. The agglutinin from Erythrina cristagalli (ECA) was used for this analysis. […] L cells were stained with purified, FITC-labeled ECA, or with FITC-labeled ECA that had been preincubated with the hapten N-acetyllactosamine and were subjected to FACS analysis.

With CC(=O)N[C@H]1C(O)O[C@H](CO)[C@@H](O[C@@H]2O[C@H](CO)[C@H](O)[C@H](O)[C@H]2O)[C@@H]1O (stereo partly shown) [N-acetyllactosamine] the “inhibition of ECA binding to L cells by hapten” value was “effectively inhibited”.
